In PMC3711124 (Biochemistry, 2008):
No end group written: not given here.

Key:
[1] = Circular dichroism of E5TM in DPC micelles; type: physicochemical; details: CD, 5°C-95°C in 10°C increments, 15 mM DPC, pH 7.5, 114 μM peptide
AUC = biological target: the molecule itself; experiment: AUC

| Molecule | thermal stability of α-helical structure [1] | stoichiometry N (AUC) |
| --- | --- | --- |
| Ac-KKKFLGLVAAMQLLLLLFLLLFFLVYWDHK [E5TM] | Only a small decrease in α-helical structure was observed |  |
| KKKFLGLVAAMQLLLLLFLLLFFLVYWDHK (also: end-caps on C- and N-termini, not given here) [E5TM peptide (transmembrane domain of the bovine papillomavirus E5 protein, residues F9-H34, with fl] |  | 2 |
